Measured values taken from ChEMBL document CHEMBL6127035, “Novel pyridazinone derivatives bind to KSRP: Synthesis, anti-tumor biological evaluations and modelling insights” (Eur J Med Chem, 2024).
Calls of active or inactive are those of the source. The calls are words filed in the database; no cut-off is given here.

Key:
4T1 = experiment: Antiproliferative activity against mouse 4T1 cells assessed as reduction in cell viability incubated for 2 days by MTT assay; type: functional, cell-based; settings: 4T1, 48 h
MCF7 [1] = experiment: Antiproliferative activity against human MCF7 cells assessed as reduction in cell viability incubated for 2 days by MTT assay; type: functional, cell-based; settings: MCF7, 48 h
MDA-MB-231 [2] = experiment: Antiproliferative activity against human MDA-MB-231 cells assessed as reduction in cell viability incubated for 2 days by MTT assay; type: functional, cell-based; settings: MDA-MB-231, 48 h
NCI-H460 = experiment: Antiproliferative activity against human NCI-H460 cells assessed as reduction in cell viability incubated for 2 days by MTT assay; type: functional, cell-based; settings: NCI-H460, 48 h
KB = experiment: Antiproliferative activity against human KB cells assessed as reduction in cell viability incubated for 2 days by MTT assay; type: functional, cell-based; settings: 48 h
A549 = experiment: Antiproliferative activity against human A549 cells assessed as reduction in cell viability incubated for 2 days by MTT assay; type: functional, cell-based; settings: A549, 48 h
HCT-116 = experiment: Antiproliferative activity against human HCT-116 cells assessed as reduction in cell viability incubated for 2 days by MTT assay; type: functional, cell-based; settings: HCT-116, 48 h
U-87 MG = experiment: Antiproliferative activity against human U-87 MG cells assessed as reduction in cell viability incubated for 2 days by MTT assay; type: functional, cell-based, U-87MG ATCC; settings: 48 h
MIA PaCa-2 = experiment: Antiproliferative activity against human MIA PaCa-2 cells assessed as reduction in cell viability incubated for 2 days by MTT assay; type: functional, cell-based; settings: MIA PaCa-2, 48 h
[3] = Cytotoxicity against human L02 cells assessed as reduction in cell viability incubated for 2 days by MTT assay; type: toxicity, cell-based
MCF7 [4] = experiment: Inhibition of colony formation in human MCF7 cells assessed as reduction in colony count incubated for 2 weeks by crystal violet staining based analysis; type: functional, cell-based; settings: dose 1.25-2.5 µM
MDA-MB-231 [5] = experiment: Inhibition of colony formation in human MDA-MB-231 cells assessed as reduction in colony count incubated for 2 weeks by crystal violet staining based analysis; type: functional, cell-based
MCF7 [6] = experiment: Antiproliferation against human MCF7 cells assessed as effect on cell proliferation at 0.625 uM incubated for 2 days by MTT assay; type: functional, cell-based; settings: time 2.0 day
MCF7 [7] = experiment: Inhibition of cell migration in human MCF7 cells assessed as reduction in wound healing index at 0.625 uM measured after 72 hrs by scratch assay; type: functional, cell-based
MDA-MB-231 [8] = experiment: Inhibition of cell migration in human MDA-MB-231 cells assessed as reduction in wound healing index measured after 72 hrs by scratch assay; type: functional, cell-based
MCF7 [9] = experiment: Induction of apoptosis in human MCF7 cells assessed as viable cells at 0.62 uM incubated for 48 hrs by Annexin V-FITC/PI staining based flow cytometric analysis (reference value: 89.3 %); type: functional; settings: read-out: Activity
MCF7 [10] = experiment: Induction of apoptosis in human MCF7 cells assessed as early apoptotic cells at 0.62 uM incubated for 48 hrs by Annexin V-FITC/PI staining based flow cytometric analysis (reference value: 5.12 %); type: functional
MCF7 [11] = experiment: Induction of apoptosis in human MCF7 cells assessed as late apoptotic cells at 0.62 uM incubated for 48 hrs by Annexin V-FITC/PI staining based flow cytometric analysis (reference value: 4.32 %); type: functional
MCF7 [12] = experiment: Induction of apoptosis in human MCF7 cells assessed as necrotic cells at 0.62 uM incubated for 48 hrs by Annexin V-FITC/PI staining based flow cytometric analysis (reference value: 1.22 %); type: functional
MCF7 [13] = experiment: Induction of apoptosis in human MCF7 cells assessed as viable cells at 1.25 uM incubated for 48 hrs by Annexin V-FITC/PI staining based flow cytometric analysis (reference value: 89.3 %); type: functional; settings: read-out: Activity
MCF7 [14] = experiment: Induction of apoptosis in human MCF7 cells assessed as early apoptotic cells at 1.25 uM incubated for 48 hrs by Annexin V-FITC/PI staining based flow cytometric analysis (reference value: 5.12 %); type: functional
MCF7 [15] = experiment: Induction of apoptosis in human MCF7 cells assessed as late apoptotic cells at 1.25 uM incubated for 48 hrs by Annexin V-FITC/PI staining based flow cytometric analysis (reference value: 4.32 %); type: functional
MCF7 [16] = experiment: Induction of apoptosis in human MCF7 cells assessed as necrotic cells at 1.25 uM incubated for 48 hrs by Annexin V-FITC/PI staining based flow cytometric analysis (reference value: 1.22 %); type: functional
MCF7 [17] = experiment: Induction of apoptosis in human MCF7 cells assessed as viable cells at 2.5 uM incubated for 48 hrs by Annexin V-FITC/PI staining based flow cytometric analysis (reference value: 89.3 %); type: functional; settings: read-out: Activity
MCF7 [18] = experiment: Induction of apoptosis in human MCF7 cells assessed as early apoptotic cells at 2.5 uM incubated for 48 hrs by Annexin V-FITC/PI staining based flow cytometric analysis (reference value: 5.12 %); type: functional
MCF7 [19] = experiment: Induction of apoptosis in human MCF7 cells assessed as late apoptotic cells at 2.5 uM incubated for 48 hrs by Annexin V-FITC/PI staining based flow cytometric analysis (reference value: 4.32 %); type: functional
MCF7 [20] = experiment: Induction of apoptosis in human MCF7 cells assessed as necrotic cells at 2.5 uM incubated for 48 hrs by Annexin V-FITC/PI staining based flow cytometric analysis (reference value: 1.22 %); type: functional
Mitochondrial membrane = experiment: Induction of mitochondrial membrane potential loss in human MCF7 cells assessed as increase in green fluorescence at 10 uM incubated for 24 hrs by JC-1 staining based automated microscopic immunofluorescence analysis; type: cell membranes
MCF7 [21] = experiment: Induction of ROS accumulation in human MCF7 cells assessed as increase in green fluorescence at 5 uM incubated for 24 hrs by DCFH-DA staining based automated microscopic immunofluorescence analysis; type: functional, cell-based
MCF7 [22] = experiment: Induction of morphological changes in human MCF7 cells assessed as cell membrane blebbing at 10 uM measured after 6 hrs by bright field microscopic; type: functional, cell-based
MCF7 [23] = experiment: Induction of DNA double-strand breaks in human MCF7 cells assessed as increase in gamma-H2AX foci formation at 10 uM incubated for 24 hrs by […] fluorescence microscopic analysis; type: functional, cell-based
MCF7 [24] = experiment: Induction of DNA double-strand breaks in human MCF7 cells assessed as enlarged nucleus at 10 uM incubated for 24 hrs by Hoechst 33342 staining based fluorescence microscopic analysis; type: functional, cell-based
MCF7 [25] = experiment: Induction of DNA double-strand breaks in human MCF7 cells assessed as appearance of nuclear fragments at 10 uM incubated for 24 hrs by Hoechst 33342 staining based fluorescence microscopic analysis; type: functional, cell-based
MCF7 [26] = experiment: Induction of DNA double-strand breaks in human MCF7 cells assessed as increase in gamma-H2AX expression incubated for 24 hrs by Western blotting; type: functional, cell-based
[27] = Acute toxicity in BALB/c nu/nu mouse assessed as mortality rate at 30 mg/kg, ip administered for 7 days relative to control; type: organism-based; settings: in vivo, time 7 day
[28] = target: T1, Far upstream element-binding protein 2 (Homo sapiens) (UniProt Q92945); experiment: Binding affinity to recombinant full-length KSRP (unknown origin) by SPR analysis
T1 sequence (whole entry): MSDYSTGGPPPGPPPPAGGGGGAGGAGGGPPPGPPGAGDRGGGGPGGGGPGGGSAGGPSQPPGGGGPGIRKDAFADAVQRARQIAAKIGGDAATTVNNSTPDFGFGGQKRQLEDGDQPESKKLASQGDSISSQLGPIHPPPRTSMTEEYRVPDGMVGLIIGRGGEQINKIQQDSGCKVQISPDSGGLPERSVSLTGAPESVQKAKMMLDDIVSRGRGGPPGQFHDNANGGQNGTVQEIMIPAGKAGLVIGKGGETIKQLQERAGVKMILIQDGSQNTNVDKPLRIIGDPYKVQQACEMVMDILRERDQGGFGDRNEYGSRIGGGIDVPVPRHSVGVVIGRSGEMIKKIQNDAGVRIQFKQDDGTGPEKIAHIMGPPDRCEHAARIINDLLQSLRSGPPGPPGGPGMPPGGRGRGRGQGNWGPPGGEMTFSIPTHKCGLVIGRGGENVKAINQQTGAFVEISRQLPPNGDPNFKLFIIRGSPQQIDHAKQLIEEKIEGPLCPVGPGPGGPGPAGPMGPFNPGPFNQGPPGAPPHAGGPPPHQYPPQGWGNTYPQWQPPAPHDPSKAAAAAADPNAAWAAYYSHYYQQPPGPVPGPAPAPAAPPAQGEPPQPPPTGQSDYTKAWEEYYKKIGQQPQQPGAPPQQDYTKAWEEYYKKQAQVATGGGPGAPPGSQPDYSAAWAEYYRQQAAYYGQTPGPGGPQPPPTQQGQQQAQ

[29] = target: T2, Far upstream element-binding protein 2 (Homo sapiens, UniProt Q92945); experiment: Binding affinity to recombinant full-length KSRP (unknown origin) assessed as dissociation constant by SPR analysis
T2 sequence (Q92945 whole entry): T1 sequence (whole entry)

CC(CO)NS(=O)(=O)c1ccc(-n2ncc(Cl)c(Cl)c2=O)cc1 (stereo not given)
IC50 (4T1): 1820 nM
IC50 (MCF7 [1]): 4450 nM
IC50 (MDA-MB-231 [2]): 7570 nM
IC50 (NCI-H460): 1020 nM
IC50 (KB): 500 nM
IC50 (A549): 2070 nM
IC50 (HCT-116): 870 nM
IC50 (U-87 MG): 580 nM
IC50 (MIA PaCa-2): 440 nM
IC50 at 2 days [3]: 4660 nM

CN(C)CCN(C)S(=O)(=O)c1ccc(-n2ncc(Cl)c(Cl)c2=O)cc1
IC50 (4T1): 1150 nM
IC50 (MCF7 [1]): 3790 nM
IC50 (MDA-MB-231 [2]): 9160 nM
IC50 (NCI-H460): 530 nM
IC50 (KB): 220 nM
IC50 (A549): 1000 nM
IC50 (HCT-116): 670 nM
IC50 (U-87 MG): 360 nM
IC50 (MIA PaCa-2): 390 nM
IC50 at 2 days [3]: 4970 nM
inhibition (MCF7 [4]): Dose-Dependent Effect
inhibition (MDA-MB-231 [5]): Active
Activity (MCF7 [6]): inactive
inhibition (MCF7 [7]): Active
inhibition (MDA-MB-231 [8]): Active
viability at 0.62 µM (MCF7 [9]): 85.5%
Activity (MCF7 [10]): 8.46%
Activity (MCF7 [11]): 4.7%
Activity (MCF7 [12]): 1.3%
viability at 1.25 µM (MCF7 [13]): 83.5%
Activity (MCF7 [14]): 9.53%
Activity (MCF7 [15]): 5.47%
Activity (MCF7 [16]): 1.48%
viability at 2.5 µM (MCF7 [17]): 75.3%
Activity (MCF7 [18]): 17%
Activity (MCF7 [19]): 6.94%
Activity (MCF7 [20]): 0.71%
Activity (Mitochondrial membrane): Active
Activity (MCF7 [21]): Active
Activity (MCF7 [22]): Active
Activity (MCF7 [23]): Active
Activity (MCF7 [24]): Active
Activity (MCF7 [25]): Active
Activity (MCF7 [26]): Dose-Dependent Effect
mortality at 168 h [27]: 100%

COCC(C)NS(=O)(=O)c1ccc(-n2ncc(Cl)c(Cl)c2=O)cc1 (stereo not given)
IC50 (4T1): 4040 nM
IC50 (MCF7 [1]): 8170 nM
IC50 (MDA-MB-231 [2]): 16100 nM
Activity [28]: Dose-Dependent Effect
Kd [29]: 38300 nM

COCCNS(=O)(=O)c1ccc(-n2ncc(Cl)c(Cl)c2=O)cc1
IC50 (4T1): 1720 nM
IC50 (MCF7 [1]): 4960 nM
IC50 (MDA-MB-231 [2]): 6080 nM
IC50 (NCI-H460): 1040 nM
IC50 (KB): 470 nM
IC50 (A549): 1260 nM
IC50 (HCT-116): 470 nM
IC50 (U-87 MG): 580 nM
IC50 (MIA PaCa-2): 390 nM
IC50 at 2 days [3]: 4070 nM
